Reference: BindingDB's records for doi:10.1016/s0960-894x(99)00197-3 (The R. W. Johnson Pharmaceutical Research Institute, 1999)
Where a SMILES comes first, the peptide text is derived from it. [ ]: non-standard residue; d: D form. The star is where a group is joined. Cha = N[C@@H](CC1CCCCC1)C(=O)O; Nicotinoyl = O=C(c1cccnc1)*; 3Abz = Nc1cccc(C(=O)O)c1

test: Activation of human platelet aggregation (gel-filtered platelets) induced by alpha thrombin

| Compound | EC50 |
| --- | --- |
| N=C(N)NCCC[C@H](NC(=O)[C@H](Cc1ccccc1)NC(=O)c1ccc2nc[nH]c2c1)C(=O)N[C@@H](Cc1ccccc1)C(N)=O [1H-Benzoimidazole-5-carboxylic acid {(S)-1-[(S)-1-((S)-1-carbamoyl-2-phenyl-ethylcarbamoyl)-4-guanidino-butylcarbamoyl]-2-phenyl-ethyl}-amide] | 4.9 µM |
| N=C(N)NCCC[C@H](NC(=O)[C@H](CC1CCCCC1)NC(=O)c1nccnc1N)C(=O)N[C@@H](Cc1ccccc1)C(N)=O [3-Amino-pyrazine-2-carboxylic acid {(S)-1-[(S)-1-((S)-1-carbamoyl-2-phenyl-ethylcarbamoyl)-4-guanidino-butylcarbamoyl]-2-cyclohexyl-ethyl}-amide] | 4.2 µM |
| N=C(N)NCCC[C@H](NC(=O)[C@H](CC1CCCCC1)NC(=O)c1cc(=O)c2ccccc2o1)C(=O)N[C@@H](Cc1ccccc1)C(N)=O [4-Oxo-4H-chromene-2-carboxylic acid {(S)-1-[(S)-1-((S)-1-carbamoyl-2-phenyl-ethylcarbamoyl)-4-guanidino-butylcarbamoyl]-2-cyclohexyl-ethyl}-amide] | 0.51 µM |
| N=C(N)NCCC[C@H](NC(=O)[C@H](CC1CCCCC1)NC(=O)c1nnc(NC(=O)C=Cc2cccc3ccccc23)[nH]1)C(=O)N[C@@H](Cc1ccccc1)C(N)=O [5-((E)-3-Naphthalen-1-yl-acryloylamino)-1H-[1,2,4]triazole-3-carboxylic acid {(S)-1-[(S)-1-((S)-1-carbamoyl-2-phenyl-ethylcarbamoyl)-4-guanidino-butylcarbamoyl]-2-cyclohexyl-ethyl}-amide] | 1 µM |
| N=C(N)NCCC[C@H](NC(=O)[C@H](CC1CCCCC1)NC(=O)c1nnc(N)[nH]1)C(=O)N[C@H](C(N)=O)c1ccccc1 [5-Amino-1H-[1,2,4]triazole-3-carboxylic acid ((S)-1-{(S)-1-[((S)-carbamoyl-phenyl-methyl)-carbamoyl]-4-guanidino-butylcarbamoyl}-2-cyclohexyl-ethyl)-amide] | 3.1 µM |

test: Inhibition of [3H]S-(p-F-Phe)-Har-L-Har-KY-NH2 binding to Thrombin receptor 1 (PAR-1) on membranes from CHRF cells

| Compound | EC50 |
| --- | --- |
| N=C(N)NCCC[C@H](NC(=O)[C@H](CC1CCCCC1)NC(=O)c1cccnc1N)C(=O)N[C@@H](Cc1ccccc1)C(N)=O [2-Amino-N-{(S)-1-[(S)-1-((S)-1-carbamoyl-2-phenyl-ethylcarbamoyl)-4-guanidino-butylcarbamoyl]-2-cyclohexyl-ethyl}-nicotinamide] | 8 µM |
| N=C(N)NCCC[C@H](NC(=O)[C@H](CC1CCCCC1)NC(=O)c1cccc(N)c1)C(=O)N[C@@H](Cc1ccccc1)C(N)=O [3-Amino-N-{(S)-1-[(S)-1-((S)-1-carbamoyl-2-phenyl-ethylcarbamoyl)-4-guanidino-butylcarbamoyl]-2-cyclohexyl-ethyl}-benzamide] (H-[3Abz][Cha]RF-NH2) | 2.9 µM |
| N=C(N)NCCC[C@H](NC(=O)[C@H](CC1CCCCC1)NC(=O)c1nnc(NC(=O)C=Cc2c[nH]c3ccccc23)[nH]1)C(=O)N[C@@H](Cc1ccccc1)C(N)=O [5-((E)-3-1H-Indol-3-yl-acryloylamino)-1H-[1,2,4]triazole-3-carboxylic acid {(S)-1-[(S)-1-((S)-1-carbamoyl-2-phenyl-ethylcarbamoyl)-4-guanidino-butylcarbamoyl]-2-cyclohexyl-ethyl}-amide] | 14 µM |
| N=C(N)NCCC[C@H](NC(=O)[C@H](CC1CCCCC1)NC(=O)c1nnc(NC(=O)C=Cc2cccs2)[nH]1)C(=O)N[C@@H](Cc1ccccc1)C(N)=O [5-((E)-3-Thiophen-2-yl-acryloylamino)-1H-[1,2,4]triazole-3-carboxylic acid {(S)-1-[(S)-1-((S)-1-carbamoyl-2-phenyl-ethylcarbamoyl)-4-guanidino-butylcarbamoyl]-2-cyclohexyl-ethyl}-amide] | 2.9 µM |
| N=C(N)NCCC[C@H](NC(=O)[C@H](CC1CCCCC1)NC(=O)c1nnc(N)[nH]1)C(=O)N[C@@H](Cc1cccs1)C(N)=O [5-Amino-1H-[1,2,4]triazole-3-carboxylic acid {(S)-1-[(S)-1-((S)-1-carbamoyl-2-thiophen-2-yl-ethylcarbamoyl)-4-guanidino-butylcarbamoyl]-2-cyclohexyl-ethyl}-amide] | 10.5 µM |
| N=C(N)NCCC[C@H](NC(=O)[C@H](CC1CCCCC1)NC(=O)c1nnc(NC(=O)C=Cc2ccccc2Cl)[nH]1)C(=O)N[C@@H](Cc1ccccc1)C(N)=O [5-[(E)-3-(2-Chloro-phenyl)-acryloylamino]-1H-[1,2,4]triazole-3-carboxylic acid {(S)-1-[(S)-1-((S)-1-carbamoyl-2-phenyl-ethylcarbamoyl)-4-guanidino-butylcarbamoyl]-2-cyclohexyl-ethyl}-amide] | 1.1 µM |
| N=C(N)NCCC[C@H](NC(=O)[C@H](CC1CCCCC1)NC(=O)c1nnc(NC(=O)C=Cc2ccc(Cl)cc2)[nH]1)C(=O)N[C@@H](Cc1ccccc1)C(N)=O [5-[(E)-3-(4-Chloro-phenyl)-acryloylamino]-1H-[1,2,4]triazole-3-carboxylic acid {(S)-1-[(S)-1-((S)-1-carbamoyl-2-phenyl-ethylcarbamoyl)-4-guanidino-butylcarbamoyl]-2-cyclohexyl-ethyl}-amide] | 55 µM |
| COc1ccc(C=CC(=O)Nc2nnc(C(=O)N[C@@H](CC3CCCCC3)C(=O)N[C@@H](CCCNC(=N)N)C(=O)N[C@@H](Cc3ccccc3)C(N)=O)[nH]2)cc1 [5-[(E)-3-(4-Methoxy-phenyl)-acryloylamino]-1H-[1,2,4]triazole-3-carboxylic acid {(S)-1-[(S)-1-((S)-1-carbamoyl-2-phenyl-ethylcarbamoyl)-4-guanidino-butylcarbamoyl]-2-cyclohexyl-ethyl}-amide] | 5.6 µM |
| N=C(N)NCCC[C@H](NC(=O)[C@H](CC1CCCCC1)NC(=O)c1nnc(NC(=O)C=Cc2ccc(C(F)(F)F)cc2)[nH]1)C(=O)N[C@@H](Cc1ccccc1)C(N)=O [5-[(E)-3-(4-Trifluoromethyl-phenyl)-acryloylamino]-1H-[1,2,4]triazole-3-carboxylic acid {(S)-1-[(S)-1-((S)-1-carbamoyl-2-phenyl-ethylcarbamoyl)-4-guanidino-butylcarbamoyl]-2-cyclohexyl-ethyl}-amide] | 5 µM |
| N=C(N)NCCC[C@H](NC(=O)[C@H](CC1CCCCC1)NC(=O)c1ccc(N)nc1)C(=O)N[C@@H](Cc1ccccc1)C(N)=O [6-Amino-N-{(S)-1-[(S)-1-((S)-1-carbamoyl-2-phenyl-ethylcarbamoyl)-4-guanidino-butylcarbamoyl]-2-cyclohexyl-ethyl}-nicotinamide] | 1.2 µM |
| CC(C)C[C@H](NC(=O)[C@H](CC(C)C)NC(=O)[C@H](Cc1ccccc1)NC(=O)[C@@H](N)CO)C(=O)N[C@@H](CCCNC(=N)N)C(=O)N[C@@H](CC(N)=O)C(N)=O [(S)-2-[(S)-2-((S)-2-{(S)-2-[(S)-2-((S)-2-Amino-3-hydroxy-propionylamino)-3-phenyl-propionylamino]-4-methyl-pentanoylamino}-4-methyl-pentanoylamino)-5-guanidino-pentanoylamino]-succinamide] | 0.28 µM |
| N=C(N)NCCC[C@H](NC(=O)[C@H](CC1CCCCC1)NC(=O)C=Cc1cccnc1)C(=O)N[C@@H](Cc1ccccc1)C(N)=O [(S)-2-[(S)-3-Cyclohexyl-2-((E)-3-pyridin-3-yl-acryloylamino)-propionylamino]-5-guanidino-pentanoic acid ((S)-1-carbamoyl-2-phenyl-ethyl)-amide] | 2.6 µM |
| N=C(N)NCCC[C@H](NC(=O)[C@H](CC1CCCCC1)NC(=O)c1cc2ccccc2s1)C(=O)N[C@@H](Cc1ccccc1)C(N)=O [Benzo[b]thiophene-2-carboxylic acid {(S)-1-[(S)-1-((S)-1-carbamoyl-2-phenyl-ethylcarbamoyl)-4-guanidino-butylcarbamoyl]-2-cyclohexyl-ethyl}-amide] | 8.3 µM |
| N=C(N)NCCC[C@H](NC(=O)[C@H](CC1CCCCC1)NC(=O)c1cc2ccccc2o1)C(=O)N[C@@H](Cc1ccccc1)C(N)=O [Benzofuran-2-carboxylic acid {(S)-1-[(S)-1-((S)-1-carbamoyl-2-phenyl-ethylcarbamoyl)-4-guanidino-butylcarbamoyl]-2-cyclohexyl-ethyl}-amide] | 12.5 µM |
| N=C(N)NCCC[C@H](NC(=O)[C@H](CC1CCCCC1)NC(=O)c1ccc2c(c1)-c1ccccc1-2)C(=O)N[C@@H](Cc1ccccc1)C(N)=O [Biphenylene-2-carboxylic acid {(S)-1-[(S)-1-((S)-1-carbamoyl-2-phenyl-ethylcarbamoyl)-4-guanidino-butylcarbamoyl]-2-cyclohexyl-ethyl}-amide] | 1.2 µM |
| N=C(N)NCCC[C@H](NC(=O)[C@H](CC1CCCCC1)NC(=O)c1ccc(Cl)nc1)C(=O)N[C@@H](Cc1ccccc1)C(N)=O [N-{(S)-1-[(S)-1-((S)-1-Carbamoyl-2-phenyl-ethylcarbamoyl)-4-guanidino-butylcarbamoyl]-2-cyclohexyl-ethyl}-6-chloro-nicotinamide] | 4.6 µM |
| N=C(N)NCCC[C@H](NC(=O)[C@H](CC1CCCCC1)NC(=O)c1cccnc1)C(=O)N[C@@H](Cc1ccccc1)C(N)=O [N-{(S)-1-[(S)-1-((S)-1-Carbamoyl-2-phenyl-ethylcarbamoyl)-4-guanidino-butylcarbamoyl]-2-cyclohexyl-ethyl}-nicotinamide] (Nicotinoyl-[Cha]-Arg-Phe-NH2) | 2 µM |
| N=C(N)NCCC[C@H](NC(=O)[C@H](CC1CCCCC1)NC(=O)c1ccccn1)C(=O)N[C@@H](Cc1ccccc1)C(N)=O [Pyridine-2-carboxylic acid {(S)-1-[(S)-1-((S)-1-carbamoyl-2-phenyl-ethylcarbamoyl)-4-guanidino-butylcarbamoyl]-2-cyclohexyl-ethyl}-amide] | 14 µM |
| N=C(N)NCCC[C@H](NC(=O)[C@H](CC1CCCCC1)NC(=O)c1cnc2ccccc2n1)C(=O)N[C@@H](Cc1ccccc1)C(N)=O [Quinoxaline-2-carboxylic acid {(S)-1-[(S)-1-((S)-1-carbamoyl-2-phenyl-ethylcarbamoyl)-4-guanidino-butylcarbamoyl]-2-cyclohexyl-ethyl}-amide] | 1 µM |
| N=C(N)NCCC[C@H](NC(=O)[C@H](CC1CCCCC1)NC(=O)c1csnn1)C(=O)N[C@@H](Cc1ccccc1)C(N)=O [[1,2,3]Thiadiazole-4-carboxylic acid {(S)-1-[(S)-1-((S)-1-carbamoyl-2-phenyl-ethylcarbamoyl)-4-guanidino-butylcarbamoyl]-2-cyclohexyl-ethyl}-amide] | 1.3 µM |
